Source: ChEMBL document CHEMBL1201862, “PubChem BioAssay data set” (2004)
Calls of active or inactive are those of the source.

Assays:
[1] = molecular target: ADP-ribosylation factor GTPase-activating protein 1 (Rattus norvegicus, UniProt Q62848); assay: Fluorescence polarization-based biochemical high throughput dose response screening assay to identify inhibitors of ADP-ribosylation factor GTPase activating protein 1 (ARFGAP1).; assay type: functional
[2] = molecular target: T1, Corticotropin-releasing factor receptor 2/Corticotropin-releasing factor-binding protein (Homo sapiens, UniProt P24387+Q13324); assay: Dose Response confirmation of uHTS hits for small molecule antagonists of the CRF-binding protein and CRF-R2 receptor complex.; assay type: functional; conditions: read-out: IC50_Mean
T1 sequence (Q13324 whole entry): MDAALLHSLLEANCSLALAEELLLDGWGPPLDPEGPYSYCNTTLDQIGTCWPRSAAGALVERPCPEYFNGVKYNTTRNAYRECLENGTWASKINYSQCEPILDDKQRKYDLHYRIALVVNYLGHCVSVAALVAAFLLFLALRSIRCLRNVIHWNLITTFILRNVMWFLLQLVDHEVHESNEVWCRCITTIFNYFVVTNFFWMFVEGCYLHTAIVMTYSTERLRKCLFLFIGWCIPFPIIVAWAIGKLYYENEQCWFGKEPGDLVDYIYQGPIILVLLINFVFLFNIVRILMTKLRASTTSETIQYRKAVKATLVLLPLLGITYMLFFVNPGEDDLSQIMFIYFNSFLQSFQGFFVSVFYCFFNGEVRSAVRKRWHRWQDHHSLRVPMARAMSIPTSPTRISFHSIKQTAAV
T1 sequence (P24387 whole entry): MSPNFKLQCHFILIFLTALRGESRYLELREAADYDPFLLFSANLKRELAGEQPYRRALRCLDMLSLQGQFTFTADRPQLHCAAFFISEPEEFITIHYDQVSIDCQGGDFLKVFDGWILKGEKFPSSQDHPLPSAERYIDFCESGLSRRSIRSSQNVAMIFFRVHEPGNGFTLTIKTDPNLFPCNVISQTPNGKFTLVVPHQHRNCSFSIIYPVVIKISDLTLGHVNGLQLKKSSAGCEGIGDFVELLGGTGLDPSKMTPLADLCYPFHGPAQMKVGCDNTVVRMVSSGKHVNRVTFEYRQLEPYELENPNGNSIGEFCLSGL

[3] = molecular target: T1, Corticotropin-releasing factor receptor 2/Corticotropin-releasing factor-binding protein; assay: activators of CRF receptor 2 with binding protein – uHTS hits, confirmation (AID 602473); assay type: functional; conditions: read-out: EC50_Mean
[4] = blockers of CRF-binding protein–CRF-R2 complex – cell-based, uHTS hits, 384-well, dose response (AID 651639); assay type: functional, Homo sapiens; conditions: read-out: IC50_Mean
[5] = molecular target: T2, Sentrin-specific protease 1 (Homo sapiens, UniProt Q9P0U3); assay: SENP1 catalytic domain blockers, concentration series – biochemical, kinetic FRET, dose response (AID 651697); assay type: functional; conditions: read-out: IC50_Mean
T2 sequence (Q9P0U3 whole entry): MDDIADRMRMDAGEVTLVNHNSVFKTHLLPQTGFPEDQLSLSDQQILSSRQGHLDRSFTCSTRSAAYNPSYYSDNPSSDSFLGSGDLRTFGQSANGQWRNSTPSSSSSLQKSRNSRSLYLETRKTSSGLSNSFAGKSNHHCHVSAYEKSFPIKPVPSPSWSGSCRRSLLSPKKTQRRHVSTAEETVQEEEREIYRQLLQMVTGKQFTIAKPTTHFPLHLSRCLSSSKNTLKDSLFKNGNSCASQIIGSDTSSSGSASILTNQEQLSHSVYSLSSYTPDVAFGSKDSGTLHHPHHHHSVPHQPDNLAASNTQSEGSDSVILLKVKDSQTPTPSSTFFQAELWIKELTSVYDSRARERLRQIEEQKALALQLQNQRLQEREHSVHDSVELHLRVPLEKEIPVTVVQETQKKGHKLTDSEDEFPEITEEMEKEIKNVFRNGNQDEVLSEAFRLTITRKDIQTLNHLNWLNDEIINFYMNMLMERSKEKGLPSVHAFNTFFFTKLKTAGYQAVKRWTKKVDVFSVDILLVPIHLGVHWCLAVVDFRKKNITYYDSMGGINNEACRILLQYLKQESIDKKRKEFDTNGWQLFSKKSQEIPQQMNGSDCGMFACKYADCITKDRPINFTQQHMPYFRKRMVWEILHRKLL

[6] = molecular target: T2, Sentrin-specific protease 1; assay: Dose response confirmation of small molecule inhibitors of the catalytic domain of the SUMO protease, SENP1 in a FRET assay.; assay type: functional; conditions: read-out: IC50_Mean
Interleukin-8 = molecular target: T3, Interleukin-8 (Homo sapiens, UniProt P10145); assay: Dose Response confirmation of uHTS small molecule hits for cystic fibrosis induced NFkb Inhibitors in a PAF-induced IL8 counterscreen.; assay type: functional; conditions: read-out: IC50_Mean
T3 sequence (P10145 whole entry): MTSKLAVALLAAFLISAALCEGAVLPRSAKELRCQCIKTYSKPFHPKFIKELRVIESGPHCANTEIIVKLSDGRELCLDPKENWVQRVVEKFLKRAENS

Sequence of ADP-ribosylation factor GTPase-activating protein 1 (Q62848 whole entry): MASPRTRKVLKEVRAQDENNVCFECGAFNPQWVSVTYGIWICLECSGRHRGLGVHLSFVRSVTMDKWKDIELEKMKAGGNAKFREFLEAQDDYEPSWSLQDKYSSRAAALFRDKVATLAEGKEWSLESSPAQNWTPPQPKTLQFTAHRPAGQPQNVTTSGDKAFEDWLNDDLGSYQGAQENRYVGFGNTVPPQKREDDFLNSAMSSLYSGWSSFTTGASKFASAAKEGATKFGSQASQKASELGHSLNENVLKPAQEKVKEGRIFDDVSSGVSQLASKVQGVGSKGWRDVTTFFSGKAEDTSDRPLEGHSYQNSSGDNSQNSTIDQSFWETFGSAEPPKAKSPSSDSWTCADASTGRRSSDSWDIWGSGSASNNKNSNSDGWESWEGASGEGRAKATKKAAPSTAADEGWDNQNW

Row | IC50 [2] | EC50 [3] | IC50 [4] | Compound | other results
1 |  |  |  | O=C(Cn1c2ccc(F)cc2c2nc3n(c(=O)c21)CCS3)Nc1ccccc1C(F)(F)F | IC50 [1]: 50.1 µM (inactive)
2 | 27.5 µM (active) | > 53 µM (inactive) | > 20 µM (inactive) | CCc1ccc(-c2cc(C)no2)cc1S(=O)(=O)Nc1ccc(Cl)cn1 | 
3 | 32.2 µM (active) | > 53 µM (inactive) | 2.57 µM (active) | Cc1cccc(CSc2ccc3nnc(-c4cccs4)n3n2)c1 | 
4 |  |  |  | CCOC(=O)c1c(O)nc2ccc(Cl)c3c2c1-c1ccccc1C3=O | IC50 [5]: 18.3 µM (active); IC50 [6]: 2.75 µM (active)
5 |  |  |  | COCCNc1nc(Oc2cncc(Cl)c2)c2sccc2n1 | IC50 (Interleukin-8): 29.2 µM (inactive)
